Each block holds one compound with its values, some of them ahead of it.
Tests used:
[1] = target: T1, Vascular endothelial growth factor receptor 2 (Homo sapiens, UniProt P35968); assay: Inhibition of VEGFR-2 (978 to 1408 residues) (unknown origin) using pEY (4:1) as substrate for 20 min in the presence of ATP by ELISA method
[2] = target: T1, Vascular endothelial growth factor receptor 2; assay: Inhibition of human recombinant VEGFR-2 kinase activity using poly(Glu-Tyr) at 4:1 ratio as substrate incubated for 60 mins by ELISA
[3] = system: MDA-MB-231; assay: Antiproliferative activity against human MDA-MB-231 cells assessed as cell growth inhibition measured after 48 hrs by MTT assay; type: functional, cell-based; settings: MDA-MB-231, 48 h
[4] = target: T1, Vascular endothelial growth factor receptor 2; assay: Inhibition of human recombinant VEGFR-2 expressed in Sf21 insect cells incubated for 60 mins by ELISA
[5] = target: T1, Vascular endothelial growth factor receptor 2; assay: Inhibition of human recombinant VEGFR-2 kinase activity using poly(Glu-Tyr) at 4:1 ratio as substrate incubated for 60 mins by ELISA method
[6] = target: T1, Vascular endothelial growth factor receptor 2; assay: Inhibition of human VEGFR-2
[7] = target: T1, Vascular endothelial growth factor receptor 2; assay: Inhibition of human recombinant VEGFR-2 in the presence of ATP
[8] = target: T1, Vascular endothelial growth factor receptor 2; assay: Inhibition of VEGFR-2 (unknown origin) kinase activity using poly(Glu-Tyr) at 4:1 ratio as substrate in presence of ATP incubated for 1 hr by ELISA
[9] = target: T1, Vascular endothelial growth factor receptor 2; assay: Inhibition of recombinant VEGFR-2 (unknown origin)
[10] = target: T1, Vascular endothelial growth factor receptor 2; assay: Inhibition of VEGFR-2 (unknown origin) incubated for 45 mins by ELISA
[11] = Inhibition of tyrosine kinase in human PANC-1 cells; type: cell-based
[12] = system: PC-3; assay: Antiproliferative activity against human PC-3 cells assessed as inhibition of cell growth incubated for 48 hrs by MTT assay; type: functional, cell-based; settings: PC-3, 48 h
[13] = system: HepG2; assay: Antiproliferative activity against human HepG2 cells assessed as reduction in cell viability by MTT assay; type: functional, cell-based
[14] = target: T1, Vascular endothelial growth factor receptor 2; assay: Inhibition of VEGFR-2 (unknown origin) incubated for […] by ELISA method
[15] = system: MCF7; assay: Antiproliferative activity against human MCF7 cells assessed as reduction in cell viability incubated for 24 hrs by MTT assay; type: functional, cell-based; settings: MCF7, 24 h
[16] = target: T1, Vascular endothelial growth factor receptor 2; assay: Inhibition of VEGFR-2 (unknown origin) kinase activity using poly(Glu-Tyr) at 4:1 ratio as substrate in presence of ATP incubated for 5 mins by ELISA method
[17] = target: T1, Vascular endothelial growth factor receptor 2; assay: Inhibition of VEGFR-2 (unknown origin)
[18] = system: MCF7; assay: Cytotoxicity against human MCF7 cells assessed as cell growth inhibition; type: functional, cell-based
[19] = system: HepG2; assay: Cytotoxicity against human HepG2 cells assessed as cell growth inhibition; type: functional, cell-based
[20] = system: MCF7; assay: Anticancer activity against human MCF7 cells assessed as inhibition of cell growth incubated for 24 hrs by MTT assay; type: functional, cell-based; settings: MCF7, 24 h
[21] = system: HepG2; assay: Anticancer activity against human HepG2 cells assessed as inhibition of cell growth incubated for 24 hrs by MTT assay; type: functional, cell-based; settings: HepG2, 24 h
[22] = target: T1, Vascular endothelial growth factor receptor 2; assay: Inhibition of human recombinant VEGFR-2 by ELISA method
[23] = target: T1, Vascular endothelial growth factor receptor 2; assay: Inhibition of human recombinant VEGFR-2 kinase activity using poly(Glu-Tyr) at 4:1 ratio as substrate incubated for […] by ELISA method
[24] = system: MDA-MB-231; assay: Cytotoxicity against human MDA-MB-231 cells assessed as reduction in cell viability incubated for 72 hrs by MTT assay; type: functional, cell-based; settings: MDA-MB-231, 72 h
[25] = system: A549; assay: Cytotoxicity against human A549 cells assessed as reduction in cell viability incubated for 72 hrs by MTT assay; type: functional, cell-based; settings: A549, 72 h
[26] = system: HeLa; assay: Cytotoxicity against human HeLa cells assessed as reduction in cell viability incubated for 24 hrs by MTT assay; type: functional, cell-based
[27] = target: T1, Vascular endothelial growth factor receptor 2; assay: Inhibition of VEGFR-2 (unknown origin)
[28] = target: T1, Vascular endothelial growth factor receptor 2; assay: Inhibition of recombinant VEGFR-2 (unknown origin); remark: listed apart in the source
[29] = system: HepG2; assay: Anticancer activity against human HepG2 cells assessed as reduction in cell viability measured after 72 hrs by MTT assay; type: functional, cell-based; settings: HepG2, 72 h
[30] = target: T1, Vascular endothelial growth factor receptor 2; assay: Inhibition of human recombinant VEGFR-2
[31] = target: T1, Vascular endothelial growth factor receptor 2; assay: Inhibition of human VEGFR-2 kinase activity using poly(Glu-Tyr) at 4:1 ratio as substrate preincubated for 30 mins followed by compound addition incubated for 1 hrs by ELISA

T1 sequence (P35968 whole entry, the tested form may be a part): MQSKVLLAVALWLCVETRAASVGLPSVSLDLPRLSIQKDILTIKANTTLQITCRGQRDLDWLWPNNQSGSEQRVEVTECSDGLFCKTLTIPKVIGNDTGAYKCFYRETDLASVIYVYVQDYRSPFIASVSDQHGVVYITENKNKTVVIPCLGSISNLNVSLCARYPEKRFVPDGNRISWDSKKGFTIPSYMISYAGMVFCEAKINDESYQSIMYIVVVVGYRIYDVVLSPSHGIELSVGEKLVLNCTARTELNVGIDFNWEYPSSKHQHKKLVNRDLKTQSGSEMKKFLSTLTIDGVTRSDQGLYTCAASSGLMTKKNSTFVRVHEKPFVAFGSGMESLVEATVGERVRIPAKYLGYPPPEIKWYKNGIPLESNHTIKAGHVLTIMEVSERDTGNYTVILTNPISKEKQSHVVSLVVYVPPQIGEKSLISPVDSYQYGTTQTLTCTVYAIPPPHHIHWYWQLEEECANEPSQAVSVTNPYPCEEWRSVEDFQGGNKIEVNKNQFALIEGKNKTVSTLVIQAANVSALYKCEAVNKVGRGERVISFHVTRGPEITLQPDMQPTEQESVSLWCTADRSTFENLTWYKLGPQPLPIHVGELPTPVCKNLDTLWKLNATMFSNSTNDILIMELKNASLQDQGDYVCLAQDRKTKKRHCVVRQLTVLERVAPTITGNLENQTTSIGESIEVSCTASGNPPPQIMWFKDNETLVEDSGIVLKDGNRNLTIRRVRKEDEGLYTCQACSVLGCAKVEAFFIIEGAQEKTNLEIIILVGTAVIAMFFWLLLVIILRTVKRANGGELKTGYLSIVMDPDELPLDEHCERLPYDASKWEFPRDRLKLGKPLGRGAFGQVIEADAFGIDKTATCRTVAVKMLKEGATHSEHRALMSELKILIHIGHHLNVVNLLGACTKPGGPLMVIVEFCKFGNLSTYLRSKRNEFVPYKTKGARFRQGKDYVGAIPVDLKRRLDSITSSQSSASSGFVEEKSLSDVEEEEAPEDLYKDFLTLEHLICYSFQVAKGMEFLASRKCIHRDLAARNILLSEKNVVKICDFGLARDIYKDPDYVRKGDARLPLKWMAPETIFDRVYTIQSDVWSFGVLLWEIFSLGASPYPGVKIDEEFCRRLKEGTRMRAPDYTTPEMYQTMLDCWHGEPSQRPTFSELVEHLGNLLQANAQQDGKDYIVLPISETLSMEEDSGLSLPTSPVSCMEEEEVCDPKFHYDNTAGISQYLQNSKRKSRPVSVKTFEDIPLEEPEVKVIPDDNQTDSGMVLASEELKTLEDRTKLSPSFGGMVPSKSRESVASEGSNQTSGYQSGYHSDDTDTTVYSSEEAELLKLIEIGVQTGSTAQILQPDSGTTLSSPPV

Structure (SMILES): CC(=O)N1N=C(C2CCCO2)CC1c1cn(-c2ccccc2)nc1-c1cccc([N+](=O)[O-])c1 (stereo not given)
IC50 [1]: 220 nM

Structure (SMILES): COc1cc(/C=C2\CCCn3c2nc2c(cnn2C)c3=O)cc(OC)c1OC
IC50 [3]: 14.2 nM | IC50 [4]: 13.2 nM

Structure (SMILES): NC(=O)CCn1cc(-c2ccc3ncnc(Nc4cc(O)ccc4F)c3c2)nn1
IC50 [7]: 12 nM

Structure (SMILES): COc1cc(-c2cc(-c3ccc4ccccc4c3)nc(NN)c2C#N)ccc1O
IC50 [8]: 0.19 nM

Structure (SMILES): COc1cc(C2NC(SCC(=O)Nc3ccc(C(C)=O)cc3)=NC(=O)C2C#N)cc(OC)c1OC (stereo not given)
IC50 [5]: 199 nM

Structure (SMILES): N#Cc1c(-c2ccc([N+](=O)[O-])cc2)cc(-c2ccc3ccccc3c2)nc1NN
IC50 [8]: 0.34 nM

Structure (SMILES): COc1ccc(C2=Nn3c(N/N=C4\C(=O)Nc5ccc(F)cc54)nnc3SC2)cc1
IC50 [9]: 435 nM

Structure (SMILES): N=c1cc(N)nc2sc(NC(=O)c3cccs3)nn12
IC50 [11]: 8.2 nM

Structure (SMILES): O=C(NC1=NN2C(=O)/C(=C\c3ccco3)N=C2S1)c1cccs1
IC50 [11]: 9.4 nM

Structure (SMILES): Cc1nc2ccccc2n(CC(=O)Nc2ccc(C(=O)NC(C)(C)C)cc2)c1=O
IC50 [18]: 7700 nM | IC50 [19]: 4500 nM

Structure (SMILES): COc1cc(/C=C/C(=O)c2ccc(N3CCNCC3)cc2)ccc1F
IC50 [23]: 570 nM

Structure (SMILES): NC(=O)CCn1cc(-c2ccc3ncnc(Nc4ccc(F)c(O)c4)c3c2)nn1
IC50 [7]: 64 nM

Structure (SMILES): O=[N+]([O-])c1cccc(-c2nn(-c3ccccc3)cc2C2CC(C3CCCO3)=NN2c2ccccc2)c1 (stereo not given)
IC50 [1]: 910 nM

Structure (SMILES): CCOC(=O)CSc1nc2ccc(C)cc2c(=O)n1-c1ccc(F)cc1
IC50 [24]: 1190 nM | IC50 [25]: 570 nM | IC50 [26]: 1260 nM

Structure (SMILES): O=C(CCSc1nc2ccccc2o1)Nc1ccc(S(=O)(=O)NC(=O)NC2CCCCC2)cc1
IC50 [28]: 80 nM

Structure (SMILES): N#Cc1c(-c2ccc(Cl)cc2)cc(-c2ccc3ccccc3c2)nc1NN
IC50 [8]: 0.25 nM

Structure (SMILES): CC1=NN(c2ccc([N+](=O)[O-])cc2[N+](=O)[O-])C(=O)/C1=C\c1cn(-c2ccccc2)nc1-c1cccc([N+](=O)[O-])c1
IC50 [1]: 820 nM

Structure (SMILES): COc1cc2ncnc(Oc3ccc(NC(=O)C4(C(=O)Nc5ccc(F)cc5)CC4)cc3F)c2c2c1OCCO2
IC50 [27]: 3.5 nM

Structure (SMILES): N#C/C(=C\c1cccs1)c1nnc(NC(=O)c2ccco2)s1
IC50 [30]: 7.6 nM

Structure (SMILES): N#CCc1nnc(NC(=O)c2ccco2)s1
IC50 [30]: 7.4 nM

Structure (SMILES): COC(C)Oc1cc2ncnc(Oc3ccc(NC(=O)C4(C(=O)Nc5ccc(F)cc5)CC4)cc3F)c2c2c1OCCO2 (stereo not given)
IC50 [27]: 3.6 nM

Structure (SMILES): O=C(/C=C/c1cccc(F)c1)c1ccc(N2CCNCC2)cc1
IC50 [23]: 800 nM

Next, values leading:

IC50 [2]: 250 nM
Structure (SMILES): Cc1ccc(NC(=O)c2ccc(NC(=O)CN3C(=O)S/C(=C/c4ccccc4)C3=O)cc2)cc1

IC50 [5]: 386 nM
Structure (SMILES): CC(=O)c1ccc(NC(=O)CSC2=NC(=O)C(C#N)C(c3ccccc3)N2)cc1 (stereo not given)

IC50 [6]: 30 nM
Structure (SMILES): CCOc1ccc(Nc2nnc3c4c(cccc24)NC(=S)N3Cc2ccccc2)cc1

IC50 [10]: 480 nM
Structure (SMILES): Cc1ccc(C)c(NC(=O)CSc2nc3ccccc3c(=O)n2-c2ccc(S(N)(=O)=O)cc2)c1

IC50 [12]: 26100 nM | IC50 [13]: 17200 nM | IC50 [14]: 4600 nM | IC50 [15]: 30800 nM
Structure (SMILES): CCn1c(SCC(=O)NNC(=O)c2ccccc2)nc2ccc([N+](=O)[O-])cc2c1=O

IC50 [16]: 1190 nM
Structure (SMILES): Cc1nc2ccccc2n(CC(=O)Nc2ccc(C(=O)NNC(=O)c3ccccc3O)cc2)c1=O

IC50 [17]: 230 nM
Structure (SMILES): O=C(N/N=C/c1ccc(Cl)cc1)c1ccc(Nc2ncnc3sc4c(c23)CCCC4)cc1

IC50 [20]: 4400 nM | IC50 [21]: 3300 nM | IC50 [22]: 3200 nM
Structure (SMILES): COc1ccc(NC(=O)c2ccc(NC(=O)CSc3nnc4c5nncn5c5ccccc5n34)cc2)cc1

IC50 [2]: 280 nM
Structure (SMILES): O=C(CN1C(=O)S/C(=C/c2ccccc2)C1=O)Nc1ccc(C(=O)NCc2ccccc2)cc1

IC50 [2]: 220 nM
Structure (SMILES): CCc1ccc(NC(=O)c2ccc(NC(=O)CN3C(=O)S/C(=C/c4ccccc4)C3=O)cc2)cc1

IC50 [27]: 8.8 nM
Structure (SMILES): COC(C)Oc1cc2ncnc(Oc3ccc(NC(=O)C4(C(=O)Nc5ccc(F)cc5)CC4)cc3)c2c2c1OCCO2 (stereo not given)

IC50 [16]: 1090 nM
Structure (SMILES): Cc1nc2ccccc2n(CC(=O)Nc2ccc(C(=O)NCc3ccccc3)cc2)c1=O

IC50 [10]: 240 nM
Structure (SMILES): COc1cccc(CNC(=O)CSc2nc3ccccc3c(=O)n2-c2ccc(S(N)(=O)=O)cc2)c1OC

IC50 [17]: 360 nM
Structure (SMILES): C/C(=N\NC(=O)c1ccc(Nc2ncnc3sc4c(c23)CCCC4)cc1)c1ccccc1

IC50 [6]: 210 nM | IC50 [29]: 220 nM
Structure (SMILES): Fc1ccc(Nc2nnc3c4c(cccc24)NC(=S)N3Cc2ccccc2)cc1

IC50 [22]: 3100 nM
Structure (SMILES): O=C(CSc1nnc2c3nncn3c3ccccc3n12)Nc1ccc(C(=O)Nc2cncs2)cc1

IC50 [31]: 3620 nM
Structure (SMILES): Cc1ccc(S(=O)(=O)Nc2ccc(-c3cc(-c4cccc(F)c4)c(C#N)c(N)n3)cc2)cc1

IC50 [14]: 4800 nM
Structure (SMILES): O=C(CSc1nc2ccc([N+](=O)[O-])cc2c(=O)n1-c1ccccc1)NNC(=O)c1ccccc1
